Test results as given in PubChem BioAssay (NCI).
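Grown in 96-well plates, cells were treated for 48 hours with each compound at five concentrations. Insufficient inhibition: endpoint recorded as highest concentration tested. At the GI50, growth is halved. TGI: total growth inhibition.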

What was measured:
Assay in all cases: DTP human tumour cell line panel, 48 h
786-0 renal = test system: 786-0 renal
A498 renal = test system: A498 renal
A549 NSCLC = test system: A549 NSCLC
ACHN renal = test system: ACHN renal
BT-549 breast = test system: BT-549 breast
CAKI-1 renal = test system: CAKI-1 renal
CCRF-CEM leukemia = test system: CCRF-CEM leukemia
COLO 205 colon = test system: COLO 205 colon
DU-145 prostate = test system: DU-145 prostate
EKVX NSCLC = test system: EKVX NSCLC
HCC-2998 colon = test system: HCC-2998 colon
HCT-116 colon = test system: HCT-116 colon
HCT-15 colon = test system: HCT-15 colon
HL-60(TB) leukemia = test system: HL-60(TB) leukemia
HOP-62 NSCLC = test system: HOP-62 NSCLC
HOP-92 NSCLC = test system: HOP-92 NSCLC
HS 578T breast = test system: HS 578T breast
HT29 colon = test system: HT29 colon
IGROV1 ovarian = test system: IGROV1 ovarian
K-562 leukemia = test system: K-562 leukemia
KM12 colon = test system: KM12 colon
LOX IMVI melanoma = test system: LOX IMVI melanoma
M14 melanoma = test system: M14 melanoma
MALME-3M melanoma = test system: MALME-3M melanoma
MCF7 breast = test system: MCF7 breast
MDA-MB-231 breast = test system: MDA-MB-231 breast
MDA-MB-435 = test system: MDA-MB-435
MDA-MB-468 breast = test system: MDA-MB-468 breast
MOLT-4 leukemia = test system: MOLT-4 leukemia
NCI-H226 lung = test system: NCI-H226 lung
NCI-H23 lung = test system: NCI-H23 lung
NCI-H460 lung = test system: NCI-H460 lung
NCI-H522 lung = test system: NCI-H522 lung
NCI/ADR-RES ovarian = test system: NCI/ADR-RES ovarian
OVCAR-3 ovarian = test system: OVCAR-3 ovarian
OVCAR-4 ovarian = test system: OVCAR-4 ovarian
OVCAR-5 ovarian = test system: OVCAR-5 ovarian
OVCAR-8 ovarian = test system: OVCAR-8 ovarian
PC-3 prostate = test system: PC-3 prostate
RPMI-8226 leukemia = test system: RPMI-8226 leukemia
RXF 393 renal = test system: RXF 393 renal
SF-268 CNS = test system: SF-268 CNS
SF-295 CNS = test system: SF-295 CNS
SF-539 CNS = test system: SF-539 CNS
SK-MEL-2 melanoma = test system: SK-MEL-2 melanoma
SK-MEL-28 melanoma = test system: SK-MEL-28 melanoma
SK-MEL-5 melanoma = test system: SK-MEL-5 melanoma
SK-OV-3 ovarian = test system: SK-OV-3 ovarian
SN12C renal = test system: SN12C renal
SNB-19 CNS = test system: SNB-19 CNS
SNB-75 CNS = test system: SNB-75 CNS
SR leukemia = test system: SR leukemia
SW-620 colon = test system: SW-620 colon
T-47D breast = test system: T-47D breast
TK-10 renal = test system: TK-10 renal
U251 CNS = test system: U251 CNS
UACC-257 melanoma = test system: UACC-257 melanoma
UACC-62 melanoma = test system: UACC-62 melanoma
UO-31 renal = test system: UO-31 renal

Compound: CC(C)(C)OC(=O)N1C/C(=C\c2ccc(F)cc2)C(=O)/C(=C/c2ccc(F)cc2)C1
- GI50 (786-0 renal): 1.94 µM
- TGI (786-0 renal): 3.98 µM
- GI50 (A498 renal): 17.1 µM
- TGI (A498 renal): 34.6 µM
- GI50 (A549 NSCLC): 6.72 µM
- TGI (A549 NSCLC): 29 µM
- GI50 (ACHN renal): 1.87 µM
- TGI (ACHN renal): 3.68 µM
- GI50 (BT-549 breast): 1.82 µM
- TGI (BT-549 breast): 3.73 µM
- GI50 (CAKI-1 renal): 2.07 µM
- TGI (CAKI-1 renal): 5.5 µM
- GI50 (CCRF-CEM leukemia): 1.81 µM
- TGI (CCRF-CEM leukemia): > 100 µM
- GI50 (COLO 205 colon): 3.49 µM
- TGI (COLO 205 colon): 12.1 µM
- GI50 (DU-145 prostate): 3.5 µM
- TGI (DU-145 prostate): 13.7 µM
- GI50 (EKVX NSCLC): 2.56 µM
- TGI (EKVX NSCLC): 6.61 µM
- GI50 (HCC-2998 colon): 1.84 µM
- TGI (HCC-2998 colon): 3.26 µM
- GI50 (HCT-116 colon): 0.355 µM
- TGI (HCT-116 colon): 1.28 µM
- GI50 (HCT-15 colon): 1.5 µM
- TGI (HCT-15 colon): 3.22 µM
- GI50 (HL-60(TB) leukemia): 2.88 µM
- TGI (HL-60(TB) leukemia): > 100 µM
- GI50 (HOP-62 NSCLC): 13.1 µM
- TGI (HOP-62 NSCLC): 26.9 µM
- GI50 (HOP-92 NSCLC): 2.51 µM
- TGI (HOP-92 NSCLC): 9.66 µM
- GI50 (HS 578T breast): 2.26 µM
- TGI (HS 578T breast): 7.68 µM
- GI50 (HT29 colon): 1.91 µM
- TGI (HT29 colon): 3.72 µM
- GI50 (IGROV1 ovarian): 2.14 µM
- TGI (IGROV1 ovarian): 4.82 µM
- GI50 (K-562 leukemia): 0.643 µM
- TGI (K-562 leukemia): > 100 µM
- GI50 (KM12 colon): 1.89 µM
- TGI (KM12 colon): 4.23 µM
- GI50 (LOX IMVI melanoma): 1.28 µM
- TGI (LOX IMVI melanoma): 2.55 µM
- GI50 (M14 melanoma): 2.02 µM
- TGI (M14 melanoma): 4.5 µM
- GI50 (MALME-3M melanoma): 2.24 µM
- TGI (MALME-3M melanoma): 5.15 µM
- GI50 (MCF7 breast): 0.991 µM
- TGI (MCF7 breast): 2.46 µM
- GI50 (MDA-MB-231 breast): 2.16 µM
- TGI (MDA-MB-231 breast): 5.27 µM
- GI50 (MDA-MB-435): 1.73 µM
- TGI (MDA-MB-435): 3.32 µM
- GI50 (MDA-MB-468 breast): 1.85 µM
- TGI (MDA-MB-468 breast): 3.75 µM
- GI50 (MOLT-4 leukemia): 3.5 µM
- TGI (MOLT-4 leukemia): > 100 µM
- GI50 (NCI-H226 lung): 3.64 µM
- TGI (NCI-H226 lung): 14.8 µM
- GI50 (NCI-H23 lung): 2.17 µM
- TGI (NCI-H23 lung): 5.3 µM
- GI50 (NCI-H460 lung): 3.22 µM
- TGI (NCI-H460 lung): 10.7 µM
- GI50 (NCI-H522 lung): 1.63 µM
- TGI (NCI-H522 lung): 3.17 µM
- GI50 (NCI/ADR-RES ovarian): 1.89 µM
- TGI (NCI/ADR-RES ovarian): 4.39 µM
- GI50 (OVCAR-3 ovarian): 1.99 µM
- TGI (OVCAR-3 ovarian): 4.46 µM
- GI50 (OVCAR-4 ovarian): 3.22 µM
- TGI (OVCAR-4 ovarian): 19.5 µM
- GI50 (OVCAR-5 ovarian): 2.18 µM
- TGI (OVCAR-5 ovarian): 5.59 µM
- GI50 (OVCAR-8 ovarian): 1.83 µM
- TGI (OVCAR-8 ovarian): 3.78 µM
- GI50 (PC-3 prostate): 1.9 µM
- TGI (PC-3 prostate): 6.41 µM
- GI50 (RPMI-8226 leukemia): 0.379 µM
- TGI (RPMI-8226 leukemia): 2.64 µM
- GI50 (RXF 393 renal): 2.92 µM
- TGI (RXF 393 renal): 8.29 µM
- GI50 (SF-268 CNS): 3.02 µM
- TGI (SF-268 CNS): 11.7 µM
- GI50 (SF-295 CNS): 1.97 µM
- TGI (SF-295 CNS): 3.98 µM
- GI50 (SF-539 CNS): 1.94 µM
- TGI (SF-539 CNS): 3.81 µM
- GI50 (SK-MEL-2 melanoma): 2.65 µM
- TGI (SK-MEL-2 melanoma): 9.67 µM
- GI50 (SK-MEL-28 melanoma): 2.17 µM
- TGI (SK-MEL-28 melanoma): 5.51 µM
- GI50 (SK-MEL-5 melanoma): 1.71 µM
- TGI (SK-MEL-5 melanoma): 3.51 µM
- GI50 (SK-OV-3 ovarian): 8.24 µM
- TGI (SK-OV-3 ovarian): 21.9 µM
- GI50 (SN12C renal): 1.82 µM
- TGI (SN12C renal): 4.12 µM
- GI50 (SNB-19 CNS): 2.65 µM
- TGI (SNB-19 CNS): 8.72 µM
- GI50 (SNB-75 CNS): 2.53 µM
- TGI (SNB-75 CNS): 19.9 µM
- GI50 (SR leukemia): 0.335 µM
- TGI (SR leukemia): > 100 µM
- GI50 (SW-620 colon): 0.455 µM
- TGI (SW-620 colon): 1.7 µM
- GI50 (T-47D breast): 3.18 µM
- TGI (T-47D breast): 15.9 µM
- GI50 (TK-10 renal): 4.01 µM
- TGI (TK-10 renal): 16.4 µM
- GI50 (U251 CNS): 1.44 µM
- TGI (U251 CNS): 2.96 µM
- GI50 (UACC-257 melanoma): 2.06 µM
- TGI (UACC-257 melanoma): 5.19 µM
- GI50 (UACC-62 melanoma): 1.78 µM
- TGI (UACC-62 melanoma): 4.17 µM
- GI50 (UO-31 renal): 1.77 µM
- TGI (UO-31 renal): 3.94 µM
